Data reported in the NIST ThermoML archive (doi:10.1016/j.jct.2016.07.003).

Tests used:
[1] = mn = molality of the nth substance listed, in mol/kg; conditions: 87 kPa, Liquid, Vibrating tube method
[2] = osmotic coefficient (dimensionless); mn = molality of the nth substance listed, in mol/kg; conditions: 298.15 K, 87 kPa, Liquid, isopiestic method
[3] = wn = mass fraction of the nth substance listed; conditions: 87 kPa, Liquid, Vibrating tube method

CCn1cc[n+](C)c1.O=S(=O)([O-])O [1-ethyl-3-methylimidazolium hydrogen sulfate] + O
mass density [kg/m3], [1]
Conditions	m1 = 0.0363	m1 = 0.0687	m1 = 0.1026	m1 = 0.1384	m1 = 0.1716	m1 = 0.2049	m1 = 0.2391	m1 = 0.2718	m1 = 0.3034	m1 = 0.3375
293.15 K	1000.86	1003.08	1005.3	1007.57	1009.63	1011.67	1013.72	1015.68	1017.53	1019.54
298.15 K	999.65	1001.82	1003.99	1006.22	1008.23	1010.23	1012.24	1014.17	1016	1017.98
303.15 K	998.2	1000.33	1002.46	1004.64	1006.63	1008.6	1010.58	1012.47	1014.26	1016.21
308.15 K	996.54	998.63	1000.73	1002.87	1004.82	1006.76	1008.7	1010.58	1012.34	1014.25
313.15 K	994.68	996.73	998.8	1000.91	1002.83	1004.74	1006.66	1008.5	1010.24	1012.13

[2]
Conditions	osmotic coefficient
m1 = 1.038	0.895
m1 = 1.543	0.897
m1 = 1.745	0.898
m1 = 1.961	0.9
m1 = 2.045	0.904
m1 = 2.251	0.909
m1 = 2.534	0.915
m1 = 2.814	0.919
m1 = 3.343	0.93
m1 = 4.042	0.948
m1 = 4.513	0.96
m1 = 5.04	0.974
m1 = 5.663	0.993
m1 = 6.555	1.03
m1 = 6.91	1.05

[Cl-].[Li+] [lithium chloride] + O
mass density [kg/m3], [3]
Conditions	293.15 K	298.15 K	303.15 K	308.15 K	313.15 K
w1 = 0.0346	–	1016.17	1014.72	1013.08	1011.25
w1 = 0.0691	1036.35	1035.04	1033.55	1031.8	1030.06
w1 = 0.1035	1055.18	1053.81	1052.33	1050.73	1049.03
w1 = 0.1379	1074.05	1072.65	1071.16	1069.55	1067.85

[2]
Conditions	osmotic coefficient
m1 = 0.9064	1.02
m1 = 1.278	1.08
m1 = 1.439	1.09
m1 = 1.616	1.09
m1 = 1.667	1.11
m1 = 1.83	1.12
m1 = 1.99	1.16
m1 = 2.183	1.18
m1 = 2.563	1.21
m1 = 3.014	1.27
m1 = 3.293	1.32
m1 = 3.572	1.37
m1 = 3.952	1.42
m1 = 4.457	1.51
m1 = 4.668	1.55
